The source of these data is article PMC6458983 (Cancer Chemotherapy and Pharmacology, 2019).

Series [1] in a line: Predicted gefitinib exposure (empirical Bayesian estimates), inter- and intra-patient comparison with/without ILD. It is filed as in vivo, Japanese patients with NSCLC. To be noted: human, plasma, oral, 250 mg. The method, then:
When estimating the exposure at first dosing and at steady state, time-dependent pharmacokinetics were not assumed. Thus, both exposures at first dosing and steady state can be theoretically derived if at least one plasma concentration at either first dosing or steady state is available. Individual exposures were predicted based on patients’ dosing history, assuming steady state at 144 h after the first dosing. […] Serum concentration of AGP were likewise determined at first dosing and at steady state.
AUC0–24 and Cmax were chosen as exposure metrics.

The subject of another series is human AGP. To be noted: cited from earlier work.

Where two headings read alike, the source gives them in different places.

For `COc1cc2ncnc(Nc3ccc(F)c(Cl)c3)c2cc1OCCCN1CCOCC1` [gefitinib], the Cmax – broadly, the maximum level reached in the sampled fluid or tissue – was 214 ng/mL in series [1] (after the first dosing, patients with ILD, value printed in box plot Fig. 1a, read-out: Cmax); 157 ng/mL in series [1] (after the first dosing, patients without ILD, value printed in box plot Fig. 1a, read-out: Cmax); 679 ng/mL in series [1] (intra-patient (n = 19), at the time of ILD development, Fig. 2a, read-out: Cmax); 517 ng/mL in series [1] (intra-patient (n = 19), at time other than ILD development (steady state), Fig. 2a, read-out: Cmax); 434 ng/mL in series [1] (steady state, 250 mg once daily, patients without ILD, Fig. 1d, read-out: Cmax,ss); 517 ng/mL in series [1] (steady state, patients with ILD, Fig. 1d, read-out: Cmax,ss). Also, the AUC(0-t) in series [1] (after the first dosing, patients with ILD, Fig. 1b, read-out: AUC0-24) was 3970 ng·h/mL; in series [1] (after the first dosing, patients without ILD, Fig. 1b, read-out: AUC0-24) it was 2990 ng·h/mL; in series [1] (intra-patient (n = 19), at the time of ILD development, Fig. 2b, read-out: AUC0-24) it was 13600 ng·h/mL; in series [1] (intra-patient (n = 19), at time other than ILD development (steady state), Fig. 2b, read-out: AUC0-24), 10100 ng·h/mL; in series [1] (steady state, patients with ILD, Fig. 1e, read-out: AUC0-24,SS), 10600 ng·h/mL; in series [1] (steady state, patients without ILD, Fig. 1e, read-out: AUC0-24,SS), 8830 ng·h/mL. Moreover, the figures for the “binding to human AGP” value in the series with human AGP (at 0.05 mg/mL) and in the series on human AGP (at 8 mg/mL) were 83.0% and 68.5%, respectively.
